Experimental data published in patent publication US20230382940A1, “ANTIVIRAL COMPOUNDS AND METHODS OF MAKING AND USING THE SAME” (Gilead Sciences, Inc., priority 2022, published 2023).

Assays:
[1] = GI S9 stability, human, Example Y; format: in vitro ADME; conditions: pooled intestinal S9 fractions; human intestinal S9, 1.0 mg/mL protein, 2 μM compound, pH 7.4; read-out: GIS9 Human T½ (per Ex. Y)
Experimental: (§1) Example Y: GI S9 Stability Data
(§2) Stock solutions of test compounds in dimethyl sulfoxide (DMSO) having a final concentration of 10 mM were prepared and used in all experiments. Sekisui XenoTech (Kansas City, KS) provided pooled intestinal S9 fractions. All other chemicals were purchased from Sigma-Aldrich (St. Louis, MO) or VWR (West Chester, PA). Internal Standard/Quench (IS/Q) used to stop reactions was 100 nM labetalol in (by volume) methanol (10%) and acetonitrile (90%).
(§3) Stability in Intestinal S9 Fractions: Duplicate aliquots of test compound or positive control substrate were added to S9 stock diluted with phosphate buffered saline (137 mM NaCl, 2.7 mM KCl, 10 mM phosphate buffer), pH 7.4, to obtain a protein concentration of 1.0 mg/mL. The metabolic reactions were initiated by the addition of the substrates to the S9 reaction mixture to a final concentration of 2 μM. At 0, 10, 20, 30, 60 and 120 min, 25 μL aliquots of the reaction mixture were transferred to plates containing 225 μl of IS/Q solution. After quenching, the plates were centrifuged at 3000×g for 30 minutes. 150 μL aliquots of each supernatant were dried down then reconstituted with 300 μL water. Aliquots (10 μL) of the prepared samples were analyzed on a Thermo Q-Exactive mass spectrometer as described below.
(§4) Liquid Chromatography—Mass Spectrometry: Quantification of test compounds and control substrate was performed by analyte/internal standard peak area ratio (PAR) values measured on a Thermo Q-Exactive mass spectrometer coupled to a Dionex UltiMate 3000 HPLC with a Leap Technologies HTC PAL autosampler. The column used for analysis was a Waters Acquity BEH C18 (1.7 μm particle size, 2.1×50 mm). Mobile phase A consisted of 0.1% (v/v) formic acid in water. Mobile phase B consisted of 0.1% (v/v) formic acid in acetonitrile. Elution of analytes was achieved by a series of linear gradients varying the proportions of A and B. The mass spectrometer was calibrated on a weekly basis and mass tolerance of 5 ppm was used.
(§5) Metabolic stabilities in S9 fractions were determined by measuring the rates of disappearance of test compound and positive control substrate.
(§6) Data (% of substrate remaining) were plotted on a semi-log scale and fitted using an exponential decline model:
(§7) Ct=C0×e^−ln2/T1/2×t • Where Ct—% of substrate remaining at time=t; C0—% of substrate remaining at time=0; t—time; T1/2—half-life. • The Half-life (T1/2) is determined by the following equation: […]
(§8) Assuming a first-order reaction, the slope (k) is extrapolated from the aforementioned plotted data.

[2] = tested on: Human Rhinovirus 14 (HRV14); assay: H1-HeLa HRV-CTG 384-well assay, HRV14, Example X; format: cell-based; conditions: Rhinovirus B, 96 h; H1-HeLa cells, HRV14 MOI 1.0, 4 days, Celltiter-Glo; read-out: EC50 H1-HeLa_HRV 14_HRV-CTG 384-well Assay (per Ex. X)
Outline: (§9)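 H1-HeLa cells (5,000/well, DMEM 2% FBS) infected with HRV1B, HRV14 or HRV16 at MOI 0.5, 1.0 and 0.25 respectively, with 10-point 1:3 compound dilutions; 4 days at 37 °C. Viability by CellTiter-Glo luminescence, normalized to rupintrivir and DMSO controls; EC50 by non-linear regression.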

[3] = tested on: Human Rhinovirus 16 (HRV16); assay: H1-HeLa HRV-CTG 384-well assay, HRV16, Example X; format: cell-based; conditions: Rhinovirus A, 96 h; H1-HeLa cells, HRV16 MOI 0.25, 4 days, Celltiter-Glo; read-out: EC50 H1-HeLa_HRV 16_HRV-CTG 384-well Assay (per Ex. X)
Outline: as §9

[4] = GI S9 stability, rat, Example Y; format: in vitro ADME; conditions: pooled intestinal S9 fractions; rat intestinal S9, 1.0 mg/mL protein, 2 μM compound, pH 7.4; read-out: GIS9 Rat T½ (per Ex. Y)
Experimental: as §1, §2, §3, §4, §5, §6, §7, §8

[5] = tested on: Human Rhinovirus 1B (HRV1B); assay: H1-HeLa HRV-CTG 384-well assay, HRV1B, Example X; format: cell-based; conditions: Rhinovirus A, 96 h; H1-HeLa cells, HRV1B MOI 0.5, 4 days, Celltiter-Glo; read-out: EC50 H1-HeLa_HRV 1B_HRV-CTG 384-well Assay (per Ex. X)
Outline: as §9

Row | SMILES | half-life at 2 μM [1] | EC50 [2] | EC50 [3] | half-life at 2 μM [4] | EC50 [5]
1 | CC[C@H](C)COC(=O)OC[C@@]1(C#N)O[C@@H](c2ccc3c(N)ncnn23)[C@H](O)[C@@H]1O [Compound 28, ((2R,3S,4R,5S)-5-(4-aminopyrrolo[2,1-f][1,2,4]triazin-7-yl)-2-cyano-3,4-dihydroxytetrahydrofuran-2-yl)methyl ((S)-2-methylbutyl) carbonate] | 18 min | 8.73 µM | 9.51 µM | 4 min | 3.53 µM
2 | N#C[C@]1(COC(=O)OCc2ccccc2)O[C@@H](c2ccc3c(N)ncnn23)[C@H](O)[C@@H]1O [Compound 29, ((2R,3S,4R,5S)-5-(4-aminopyrrolo[2,1-f][1,2,4]triazin-7-yl)-2-cyano-3,4-dihydroxytetrahydrofuran-2-yl)methyl benzyl carbonate] | 15 min | 8.06 µM | 9.86 µM | 3 min | 3.26 µM
3 | N#C[C@]1(COC(=O)OCC2CCCC2)O[C@@H](c2ccc3c(N)ncnn23)[C@H](O)[C@@H]1O [Compound 30, ((2R,3S,4R,5S)-5-(4-aminopyrrolo[2,1-f][1,2,4]triazin-7-yl)-2-cyano-3,4-dihydroxytetrahydrofuran-2-yl)methyl (cyclopentylmethyl) carbonate] | 15 min | 5.58 µM | 8.88 µM | 3 min | 3.12 µM
4 | CCC(CC)COC(=O)OC[C@@]1(C#N)O[C@@H](c2ccc3c(N)ncnn23)[C@H](O)[C@@H]1O [Compound 31, ((2R,3S,4R,5S)-5-(4-aminopyrrolo[2,1-f][1,2,4]triazin-7-yl)-2-cyano-3,4-dihydroxytetrahydrofuran-2-yl)methyl (2-ethylbutyl) carbonate] | 18 min | 7.62 µM | 9.07 µM | 3 min | 3.16 µM
5 | N#C[C@]1(COC(=O)OCC2CC2)O[C@@H](c2ccc3c(N)ncnn23)[C@H](O)[C@@H]1O [Compound 32, ((2R,3S,4R,5S)-5-(4-aminopyrrolo[2,1-f][1,2,4]triazin-7-yl)-2-cyano-3,4-dihydroxytetrahydrofuran-2-yl)methyl (cyclopropylmethyl) carbonate] | 33 min | 11.5 µM | 12.1 µM | 8 min | 5.69 µM
6 | N#C[C@]1(COC(=O)O[C@H]2CCOC2)O[C@@H](c2ccc3c(N)ncnn23)[C@H](O)[C@@H]1O [Compound 33, ((2R,3S,4R,5S)-5-(4-aminopyrrolo[2,1-f][1,2,4]triazin-7-yl)-2-cyano-3,4-dihydroxytetrahydrofuran-2-yl)methyl ((S)-tetrahydrofuran-3-yl) carbonate] | 250 min | 15.6 µM | 18.5 µM | 58 min | 8.7 µM
7 | CCCOCCOC(=O)OC[C@@]1(C#N)O[C@@H](c2ccc3c(N)ncnn23)[C@H](O)[C@@H]1O [Compound 34, ((2R,3S,4R,5S)-5-(4-aminopyrrolo[2,1-f][1,2,4]triazin-7-yl)-2-cyano-3,4-dihydroxytetrahydrofuran-2-yl)methyl (2-propoxyethyl) carbonate] | 108 min | 14 µM | 12.1 µM | 11 min | 7.31 µM
8 | CC(C)(C)CCOC(=O)OC[C@@]1(C#N)O[C@@H](c2ccc3c(N)ncnn23)[C@H](O)[C@@H]1O [Compound 35, ((2R,3S,4R,5S)-5-(4-aminopyrrolo[2,1-f][1,2,4]triazin-7-yl)-2-cyano-3,4-dihydroxytetrahydrofuran-2-yl)methyl (3,3-dimethylbutyl) carbonate] | 19 min | 12.2 µM | 15.1 µM | 4 min | 8.63 µM
9 | N#C[C@]1(COC(=O)OC2CC3(CCC3)C2)O[C@@H](c2ccc3c(N)ncnn23)[C@H](O)[C@@H]1O [Compound 36, ((2R,3S,4R,5S)-5-(4-aminopyrrolo[2,1-f][1,2,4]triazin-7-yl)-2-cyano-3,4-dihydroxytetrahydrofuran-2-yl)methyl spiro[3.3]heptan-2-yl carbonate] | 14 min | 10.6 µM | 12 µM | 3 min | 5.93 µM
10 | CC1(C)CC(OC(=O)OC[C@@]2(C#N)O[C@@H](c3ccc4c(N)ncnn34)[C@H](O)[C@@H]2O)C1 [Compound 37, ((2R,3S,4R,5S)-5-(4-aminopyrrolo[2,1-f][1,2,4]triazin-7-yl)-2-cyano-3,4-dihydroxytetrahydrofuran-2-yl)methyl (3,3-dimethylcyclobutyl) carbonate] | 29 min | 20.5 µM | 12.6 µM | 4 min | 6.74 µM
11 | COC[C@@H](C)OC(=O)OC[C@@]1(C#N)O[C@@H](c2ccc3c(N)ncnn23)[C@H](O)[C@@H]1O [Compound 38, ((2R,3S,4R,5S)-5-(4-aminopyrrolo[2,1-f][1,2,4]triazin-7-yl)-2-cyano-3,4-dihydroxytetrahydrofuran-2-yl)methyl ((R)-1-methoxypropan-2-yl) carbonate] | 292 min | 24.4 µM | 40 µM | 38 min | 23.8 µM
12 | N#C[C@]1(COC(=O)O[C@@H]2C[C@@H]3C[C@@H]3C2)O[C@@H](c2ccc3c(N)ncnn23)[C@H](O)[C@@H]1O [Compound 39, ((2R,3S,4R,5S)-5-(4-aminopyrrolo[2,1-f][1,2,4]triazin-7-yl)-2-cyano-3,4-dihydroxytetrahydrofuran-2-yl)methyl ((1R,3r,5S)-bicyclo[3.1.0]hexan-3-yl) carbonate] | 27 min | 11.7 µM | 22 µM | 7 min | 8.26 µM
13 | C[C@H]1CC[C@H](OC(=O)OC[C@@]2(C#N)O[C@@H](c3ccc4c(N)ncnn34)[C@H](O)[C@@H]2O)CC1 [Compound 40, ((2R,3S,4R,5S)-5-(4-aminopyrrolo[2,1-f][1,2,4]triazin-7-yl)-2-cyano-3,4-dihydroxytetrahydrofuran-2-yl)methyl ((1r,4R)-4-methylcyclohexyl) carbonate] | 36 min | 15.4 µM | 29.3 µM | 6 min | 9.48 µM
